{
  "source": "patent US20220324865A1",
  "about": "(Bayer Aktiengesellschaft, priority 2018, published 2022)",
  "note": "Counter-ions that a name gives are not always drawn.",
  "data": [
    {"target": "T1, human EP3 receptor (Homo sapiens, UniProt P43115)", "T1 construct": "expressed in transfected cells; host or cells: CHO K1 (Chinese Hamster Ovary), stably co-transfected with Galpha16 and mitochondrial clytin", "T1 sequence (P43115 1-390)": "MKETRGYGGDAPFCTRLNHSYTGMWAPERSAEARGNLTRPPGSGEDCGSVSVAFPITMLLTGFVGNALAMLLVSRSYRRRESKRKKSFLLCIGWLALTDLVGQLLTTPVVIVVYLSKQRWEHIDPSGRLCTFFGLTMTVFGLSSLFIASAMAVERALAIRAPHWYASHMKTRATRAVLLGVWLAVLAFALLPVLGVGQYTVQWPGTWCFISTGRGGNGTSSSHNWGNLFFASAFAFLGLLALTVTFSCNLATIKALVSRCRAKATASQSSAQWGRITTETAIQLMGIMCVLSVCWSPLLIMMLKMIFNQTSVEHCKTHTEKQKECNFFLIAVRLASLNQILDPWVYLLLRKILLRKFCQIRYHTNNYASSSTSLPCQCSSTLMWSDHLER", "assay": "Cellular in vitro assay for determining EP3 receptor activity (human EP3 cell line, sulprostone-stimulated calcium luminescence)", "assay_type": "cell-based", "details": "CHO cells expressing human EP3 and mitochondrial Clytin; antagonist mode, sulprostone at EC50; read-out: EP3 CHO mtCLY ANTAG IC50", "procedure,_shortened": "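CHO K1 cells stably expressing human EP3 with Gα16 and mitochondrial Clytin, loaded overnight with coelenterazine. Compounds added 10 min before sulprostone at its EC50; antagonism read immediately as reduced calcium-driven luminescence, quadruplicate points.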", "units": {"IC50": "nM"}, "values": [
      {"smiles": "COC[C@H](NC(=O)c1nn2cc(-c3ccc(C(F)(F)F)c(C)c3)[nH]c(=O)c2c1C1CC1)c1ccccc1", "note": "[6-137]", "IC50": 1.4},
      {"smiles": "Cc1ccc(-c2cn3nc(C(=O)NCc4ccccc4)cc3c(=O)[nH]2)cc1C", "note": "[6-22]", "IC50": 4},
      {"smiles": "Cc1ccc(-c2cn3nc(C(=O)N[C@H](CCO)c4ccc(F)cc4)c(C)c3c(=O)[nH]2)cc1F", "note": "[6-408]", "IC50": 1.03},
      {"smiles": "COc1ccc2c(c1)OC(C)(C)CC2NC(=O)c1nn2cc(-c3cnc4cccc(C)c4c3)[nH]c(=O)c2c1C(C)C", "note": "(centres unmarked) [Example 4-79, 3-Isopropyl-N-(7-methoxy-2,2-dimethyl-3,4-dihydro-2-chromen-4-yl)-6-(5-methylquinolin-3-yl)-4-oxo-4,5-dihydropyrazolo[1,5-a]pyrazine-2-carboxamide]", "IC50": 7.6},
      {"smiles": "O=C(N[C@H](CCO)c1ccc(F)cc1)c1cc2c(=O)[nH]c(-c3ccc(Cl)c(Cl)c3)cn2n1", "note": "[6-635]", "IC50": 4.05},
      {"smiles": "Cc1ccc(-c2[nH]c(=O)c3c(C4CC4)c(C(=O)N[C@@H](c4ccc(F)cc4)C(C)(C)O)nn3c2F)cc1Cl", "note": "[6-664]", "IC50": 5.25},
      {"smiles": "CN(C)C[C@@H](NC(=O)c1cc2c(=O)[nH]c(-c3ccc4ccccc4c3)cn2n1)c1ccccc1", "note": "[Example 1-38, N-[(1S)-2-(Dimethylamino)-1-phenylethyl]-6-(naphthalen-2-yl)-4-oxo-4,5-dihydropyrazolo[1,5-a]-pyrazine-2-carboxamide formic acid salt]", "IC50": 4.09},
      {"smiles": "Cc1[nH]c2ccc(CNC(=O)c3nn4cc(-c5cnc6cccc(C)c6c5)[nH]c(=O)c4c3C(C)C)cc2c1C", "note": "[Example 4-10, N-[(2,3-Dimethyl-1H-indol-5-yl)methyl]-6-(5-methylquinolin-3-yl)-4-oxo-3-(propan-2-yl)-4,5-dihydropyrazolo[1,5-a]pyrazine-2-carboxamide]", "IC50": 2},
      {"smiles": "CCc1ccc(C(C)NC(=O)c2cc3c(=O)[nH]c(-c4ccc5ccccc5c4)cn3n2)cc1", "note": "(centres unmarked) [Example 2-39, N-[1-(4-Ethylphenyl)ethyl]-6-(2-naphthyl)-4-oxo-4,5-dihydropyrazolo[1,5-a]pyrazine-2-carboxamide]", "IC50": 3.7},
      {"smiles": "Cc1cc(-c2cn3nc(C(=O)N[C@@H](c4ccc(F)cc4)[C@H](O)C(F)(F)F)c(C4CC4)c3c(=O)[nH]2)ccc1Cl", "note": "[6-315]", "IC50": 2},
      {"smiles": "Cc1ccc(-c2cn3nc(C(=O)NC4(c5ccc(F)cc5)CN(C)C4)c(C(C)C)c3c(=O)[nH]2)cc1C", "note": "[Example 1-91, 6-(3,4-Dimethylphenyl)-N-[3-(4-fluorophenyl)-1-methylazetidin-3-yl]-4-oxo-3-(propan-2-yl)-4,5-dihydropyrazolo[1,5-a]pyrazine-2-carboxamide]", "IC50": 0.915},
      {"smiles": "Cc1ccc(-c2cn3nc(C(=O)N[C@H](CCO)c4ccc(F)cc4)cc3c(=O)[nH]2)cc1F", "note": "[6-638]", "IC50": 1.36},
      {"smiles": "O=C(NC(c1ccc(F)cc1)C1(O)CC1)c1nn2cc(-c3ccc(Cl)c(F)c3)[nH]c(=O)c2c1C1CC1", "note": "(racemic) [6-96]", "IC50": 0.49},
      {"smiles": "COc1ccc(CCNC(=O)c2cc3c(=O)[nH]c(-c4ccc5c(c4)N(C)CCO5)cn3n2)cc1OC", "note": "[6-86]", "IC50": 1.95},
      {"smiles": "Cc1cccc2ncc(-c3cn4nc(C(=O)N[C@H](CCO)c5ccc(F)cc5)cc4c(=O)[nH]3)cc12", "note": "[Example 1-113, N-[(1R)-1-(4-Fluorophenyl)-3-hydroxypropyl]-6-(5-methylquinolin-3-yl)-4-oxo-4,5-dihydropyrazolo[1,5-a]pyrazine-2-carboxamide]", "IC50": 3.8},
      {"smiles": "COc1ccc(C2(NC(=O)c3cc4c(=O)[nH]c(-c5ccc6ccccc6c5)cn4n3)CN(C)C2)cn1", "note": "[6-63]", "IC50": 7.1},
      {"smiles": "Cc1cc(-c2cn3nc(C(=O)N[C@H](C)C4CC4)c(C4CC4)c3c(=O)[nH]2)ccc1Cl", "note": "[6-335]", "IC50": 1.8},
      {"smiles": "Cc1cc(-c2cn3nc(C(=O)NC(C)C4CCC4)c(C4CC4)c3c(=O)[nH]2)ccc1Cl", "note": "(racemic) [6-298]", "IC50": 2.85},
      {"smiles": "CC(COc1cc(Cl)cc(Cl)c1)NC(=O)c1nn2cc(-c3ccc4ccccc4c3)[nH]c(=O)c2c1C(F)(F)F", "note": "(centres unmarked) [Example 1-118, N-[2-(3,5-Dichlorophenoxy)-1-methylethyl]-6-(2-naphthyl)-4-oxo-3-(trifluoromethyl)-5H-pyrazolo-[1,5-a]pyrazine-2-carboxamide]", "IC50": 3.95},
      {"smiles": "Cc1ccc(CNC(=O)c2cc3c(=O)[nH]c(-c4ccc5ccccc5c4)cn3n2)cc1", "note": "[Example 2-14, N-(4-Methylbenzyl)-6-(2-naphthyl)-4-oxo-4,5-dihydropyrazolo[1,5-a]pyrazine-2-carboxamide]", "IC50": 1.25},
      {"smiles": "COc1ccc(C(C)NC(=O)c2nn3cc(-c4ccc5ccccc5c4)[nH]c(=O)c3c2C#N)cn1", "note": "(centres unmarked) [Example 3-50, 3-Cyano-N-[1-(6-methoxy-3-pyridyl)ethyl]-6-(2-naphthyl)-4-oxo-5H-pyrazolo[1,5-a]pyrazine-2-carboxamide]", "IC50": 1.75},
      {"smiles": "CC[C@@H](NC(=O)c1nn2cc(-c3cnc4cccc(C)c4c3)[nH]c(=O)c2c1C(C)C)c1ccccc1", "note": "[Example 4-49, 6-(5-Methylquinolin-3-yl)-4-oxo-N-[(1R)-1-phenylpropyl]-3-(propan-2-yl)-4,5-dihydropyrazolo[1,5-a]pyrazine-2-carboxamide]", "IC50": 3.95},
      {"smiles": "Cc1c(C(=O)N[C@H](C)c2ccc(F)cc2)nn2cc(-c3ccc4ccccc4c3)[nH]c(=O)c12", "note": "[Example 1-45, N-[(1R)-1-(4-Fluorophenyl)ethyl]-3-methyl-6-(naphthalen-2-yl)-4-oxo-4,5-dihydropyrazolo[1,5-a]-pyrazine-2-carboxamide]", "IC50": 2.85},
      {"smiles": "Cc1c(C(=O)NC(C)c2ccc3c(c2)OCCO3)nn2c(C)c(-c3ccc4ccccc4c3)[nH]c(=O)c12", "note": "(centres unmarked) [Example 3-31, N-[1-(2,3-Dihydro-1,4-benzodioxin-6-yl)ethyl]-3,7-dimethyl-6-(2-naphthyl)-4-oxo-5H-pyrazolo[1,5-a]pyrazine-2-carboxamide]", "IC50": 4.45},
      {"smiles": "Cc1c(C(=O)N[C@@H](CO)c2ccccc2)nn2c(C)c(-c3ccc4ccccc4c3)[nH]c(=O)c12", "note": "[Example 3-71, N-[(1R)-2-Hydroxy-1-phenylethyl]-3,7-dimethyl-6-(naphthalen-2-yl)-4-oxo-4,5-dihydropyrazolo[1,5-a]pyrazine-2-carboxamide]", "IC50": 9.45},
      {"smiles": "O=C(N[C@H]1c2ccccc2C[C@H]1O)c1cc2c(=O)[nH]c(-c3ccc4ccccc4c3)cn2n1", "note": "[6-72]", "IC50": 7.93},
      {"smiles": "CC(C)[C@@H](C)NC(=O)c1nn2cc(-c3ccc4ccccc4c3)[nH]c(=O)c2c1C(F)(F)F", "note": "[6-512]", "IC50": 0.95},
      {"smiles": "Cc1cccc2ncc(-c3cn4nc(C(=O)N[C@H]5CC[C@H](O)CC5)c(C(C)C)c4c(=O)[nH]3)cc12", "note": "[Example 4-32, N-(trans-4-Hydroxycyclohexyl)-3-isopropyl-6-(5-methylquinolin-3-yl)-4-oxo-4,5-dihydropyrazolo[1,5-a]pyrazine-2-carboxamide]", "IC50": 6.5},
      {"smiles": "Cc1cccc2ncc(-c3cn4nc(C(=O)NC(c5cccc(F)c5)C(F)F)c(C(C)C)c4c(=O)[nH]3)cc12", "note": "(centres unmarked) [Example 4-76, N-[2,2-Difluoro-1-(3-fluorophenyl)ethyl]-3-isopropyl-6-(5-methyl-3-quinolyl)-4-oxo-5H-pyrazolo[1,5-a]pyrazine-2-carboxamide]", "IC50": 3.15},
      {"smiles": "Cc1cc(-c2cn3nc(C(=O)N[C@@H](c4ccc(F)cc4)C(F)(F)CO)c(C(F)(F)F)c3c(=O)[nH]2)ccc1Cl", "note": "[Example 1-171, 6-(4-Chloro-3-methylphenyl)-N-[(1S)-2,2-difluoro-1-(4-fluorophenyl)-3-hydroxpropyl]-4-oxo-3-(trifluoromethyl)-4,5-dihydropyrazolo[1,5-a]pyrazine-2-carboxamide]", "IC50": 1.03},
      {"smiles": "Cc1ccc(-c2cn3nc(C(=O)N[C@@H](C)CO)c(C4CC4)c3c(=O)[nH]2)cc1C", "note": "[Example 1-155, 3-Cyclopropyl-6-(3,4-dimethylphenyl)-N-[(2S)-1-hydroxpropan-2-yl]-4-oxo-4,5-dihydropyrazolo-[1,5-a]pyrazine-2-carboxamide]", "IC50": 1.5},
      {"smiles": "Cc1c(C(=O)NC2Cc3ccccc3C2)nn2c(C)c(-c3ccc4ccccc4c3)[nH]c(=O)c12", "note": "[Example 3-13, N-(2,3-Dihydro-1H-inden-2-yl)-3,7-dimethyl-6-(naphthalen-2-yl)-4-oxo-4,5-dihydropyrazolo[1,5-a]pyrazine-2-carboxamide]", "IC50": 7.15},
      {"smiles": "COc1ccc(C2(NC(=O)c3nn4cc(-c5ccc(Cl)c(C)c5)[nH]c(=O)c4c3C3CC3)CN(C)C2)cc1", "note": "[6-303]", "IC50": 2.9},
      {"smiles": "COC(=O)C(NC(=O)c1cc2c(=O)[nH]c(-c3ccc4ccccc4c3)cn2n1)c1ccc(F)cc1", "note": "(centres unmarked) [6-17]", "IC50": 3.75},
      {"smiles": "COCc1c(C(=O)NC2(c3ccc(F)cc3)CN(C)C2)nn2cc(-c3ccc4c(c3)OCCO4)[nH]c(=O)c12", "note": "[6-628]", "IC50": 6.65},
      {"smiles": "COc1ccc(CNC(=O)c2cc3c(=O)[nH]c(-c4ccc(C)c(Cl)c4)c(C)n3n2)cc1OC", "note": "[Example 1-129, 6-(3-Chloro-4-methylphenyl)-N-(3,4-dimethoxybenzyl)-7-methyl-4-oxo-4,5-dihydropyrazolo-[1,5-a]pyrazine-2-carboxamide]", "IC50": 7.82},
      {"smiles": "COc1ccc(CCNC(=O)c2cc3c(=O)[nH]c(-c4ccc(C)c(Cl)c4)cn3n2)cc1OC", "note": "[6-15]", "IC50": 2.37},
      {"smiles": "CC(C)(O)[C@@H](NC(=O)c1nn2cc(-c3ccc4ccccc4c3)[nH]c(=O)c2c1C(F)(F)F)c1ccccc1", "note": "[Example 1-18, N-[(1S)-2-Hydroxy-2-methyl-1-phenylpropyl]-6-(naphthalen-2-yl)-4-oxo-3-(trifluoromethyl)-4,5-dihydropyrazolo[1,5-a]pyrazine-2-carboxamide]", "IC50": 1.04}
    ]}
  ]
}
